Common to all, as to test: relative viability (nuclei count vs DMSO), 5 days (fraction); higher = more cells survive
Compound in one experiment: COc1cc(Nc2ncc(F)c(Nc3ccc4c(n3)NC(=O)C(C)(C)O4)n2)cc(OC)c1OC [R406]
The procedure, abridged:
(§1)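 Acceptance criteria were a control CV below 25% and at least one doubling per plate. Lung cancer cell lines in 1536-well plates got five library-drug doses (not always all listed) √10 apart by pinning and were left 5 days with no medium change. Viability divides treated-well nuclei by vehicle-well nuclei and is the median across plates. Nuclei were counted by MetaXpress from 4× Hoechst images.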

Compound in a further experiment: O=C(/C=C/c1cccnc1)NCCCCC1CCN(C(=O)c2ccccc2)CC1 [Daporinad]
In short, it runs like this:
as §1

Compound in the experiment “R406 + Trametinib”: COc1cc(Nc2ncc(F)c(Nc3ccc4c(n3)NC(=O)C(C)(C)O4)n2)cc(OC)c1OC [R406] + CC(=O)Nc1cccc(-n2c(=O)n(C3CC3)c(=O)c3c(Nc4ccc(I)cc4F)n(C)c(=O)c(C)c32)c1 [Trametinib] (partner 0.02 µM)
The procedure, abridged:
(§2)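 Lung cancer cell lines in 1536-well plates were dosed by pin tool the day after seeding, either with one drug alone or with a fixed anchor-drug dose plus five library-drug doses (not always all listed) in √10 steps. After 5 days, cells were fixed and their nuclei stained in one step (final 0.05% Triton X-100, 1% formaldehyde, 1 ug/ml Hoechst), then counted on 4× images. Relative viability is the nuclei count in treated wells divided by that in vehicle wells. Values are medians of duplicate plates.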

Compound in the experiment “R406 + Foretinib”: COc1cc(Nc2ncc(F)c(Nc3ccc4c(n3)NC(=O)C(C)(C)O4)n2)cc(OC)c1OC [R406] + COc1cc2c(Oc3ccc(NC(=O)C4(C(=O)Nc5ccc(F)cc5)CC4)cc3F)ccnc2cc1OCCCN1CCOCC1 [Foretinib] (partner 0.25 µM)
The procedure, abridged:
as §2

UMC-11: the relative viability came out at 0.964 in the experiment with R406 (0.08 µM); 1.15 with R406 (0.253 µM); 1.16 with R406 (0.8 µM); 0.861 in the experiment with R406 (2.53 µM); 0.481 with R406 (8 µM); 0.963 in the experiment with Daporinad (0.0005 µM). Moreover, the relative viability in the experiment with Daporinad (0.001581 µM) turned out to be 1.07; with Daporinad (0.005 µM) it was 1.03; in the experiment with Daporinad (0.01581 µM), 1.05; in the experiment with R406 + Trametinib (first compound 0.08 µM), 0.724; with R406 + Trametinib (first compound 0.253 µM), 0.959; with R406 + Trametinib (first compound 0.8 µM) it was 0.776. Further, the relative viability amounted to 0.874 with R406 + Trametinib (first compound 2.53 µM); 0.482 in the experiment with R406 + Trametinib (first compound 8 µM); 1.11 with R406 + Foretinib (first compound 0.08 µM); 1.09 with R406 + Foretinib (first compound 0.253 µM); 0.987 with R406 + Foretinib (first compound 0.8 µM); 0.789 in the experiment with R406 + Foretinib (first compound 2.53 µM). Further, in the experiment with R406 + Foretinib (first compound 8 µM), the relative viability was 0.499.

The values above are taken from the supplement of paper PMC10307832.
